Measurements: patent publication US20230202973A1, “BARNESIN A, DERIVATIVES AND USES THEREOF” (Leibniz-Institut Für Naturstoff-Forschung Und …, priority 2018, published 2023)
Square brackets hold non-standard residues; d marks the D form. Peptide text beside a SMILES is read from it. * marks the point of attachment. Sta = CC(C)C[C@H](N)[C@@H](O)CC(=O)O; Isovaleryl = CC(C)CC(=O)*

Key:
Glutathione (GSH) assay = type: in vitro ADME; settings: relative to t=0; for Area rel. [%] (GSH assay, NC): negative control: test item in phosphate buffer without GSH, time 90 min; for Area rel. [%] (GSH assay): with GSH, 37° C.
Description: Procedure: A standard GSH assay includes a phosphate buffer (720 μL), a GSH solution (40 μL, 100 mM) and the test solution of the test compound (20 μM in 10% DMSO in phosphate buffer (100 mM, pH 7.4)). As negative control (NC) serves the test item (20 μM in 10% DMSO in phosphate buffer (100 mM, pH 7.4) in phosphate buffer (760 μL).
Samples are prepared as follows: phosphate buffer (720 μL) and GSH solution (40 μL, 100 mM) were preincubated at 37° C., and 40 μL of the test item solution (or internal standard) added. Then […] of the assay mixture were mixed with 100 μL ACN were at the following time points: t=0, 30 and 90 min; in case of the test item, t=0 and 90 min in case of PC or NC. The samples were mixed for 2 min at 150 rpm, centrifuged at 16.1 (krcf). 5 μL of each samples were injected to a UPLC/HRMS system. The peak areas of the extracted ion chromatograms were determined using the standard software.

[1] = Microsome stability assay; type: in vitro ADME; settings: for Area rel. [%] (liver microsomes, NC): 90 min, 1 µM, pH 7.4; for Area rel. [%] (liver microsomes, PC): positive control, relative to t=0
Description: Microsome Stability Assay The liver is the main organ of drug metabolism in the body. Subcellular fractions such as liver microsomes are useful in vitro models of hepatic clearance as they contain many of the drug metabolising enzymes found in the liver. Liver microsomes are subcellular fractions which contain membrane bound drug metabolising enzymes. The microsomes are incubated with the test compound at 37° C. in the presence of the co-factors, which initiates the reaction. The reaction is terminated by the addition of organic solvents containing internal standard. Following centrifugation, the supernatant is analysed on the LC-MS/MS. The disappearance of test compound is monitored over certain time period. Here, a microsome stability assay was used to investigate the metabolism of the compounds; using this assay it is possible to measure in vitro the intrinsic clearance or to identify metabolites formed. For a standard assay the following solutions were used: 360 μL Microsomal solution (1.1 mg/mL in phosphate buffer), 360 μL NADP-regeneration mix (containing NADP (10 mM), MgCl2 (50 mM), glucose-6-phosphate (50 mM), glucose-6-phosphate dehydrogenase (50 U/ml)) and 40 μL phosphate buffer (100 mM, pH 7.4). Diclofenac (10 μL, 200 μM) was used as positive control (360 μL Microsomal solution, 360 μL NADP-regeneration mix and 40 μL Phosphate buffer) and phosphate buffer (360 μL Microsomal solution, 360 μL NADP-regeneration mix) served as negative control. […] The following procedure was applied: 40 μL of the working solution was added to a pre-incubated solution containing the microsomal solution and the NADP-regeneration mix at 37° C./1500 rpm. Samples were prepared as follows: […] Samples were mixed at 1500 rpm for 2 min, centrifuged for 2 min at 16.1 krcf. 5 uL of each sample was injected to a UPLC/HRMS system and the peak areas of the extracted ion chromatograms were determined

hCatL = hCatL (Homo sapiens, UniProt P07711); assay: Fluorescence-based activity test against cathepsin L (Cbz-Phe-Arg-AMC); type: biochemical; parameters: dose or concentration left out as unconfirmed
Description: (§1) Activity Tests Against Cathepsin B, Cathepsin L and Rhodesain.
(§2) The determination of the activity of the inhibitors against hCatL and RD was performed in fluorescence-based assays in accordance with the assays described in Giroud et al., ChemMedChem 12 (2017), 257-270 and Schirmeister, Bioorganic & Medicinal Chemistry Letters 27 (2017) 45-50. The biological activities against hCatL were determined using Cbz-Phe-Arg-AMC as substrate, which releases AMC (7-amino-4-methylcoumarin) after amide bond cleavage by the enzyme. The proteolytic activity of the enzyme can be monitored spectrophotometrically by the increase of fluorescence intensity by release of AMC (emission at 460 nm) upon hydrolysis. An initial screen at an inhibitor concentration […] was performed to identify ligands with an inhibition of hCatL and RD higher than 80%.

Cathepsin B = Cathepsin B (Homo sapiens, UniProt P07858); assay: Activity test against cathepsin B (initial screen, Table 5); type: biochemical; parameters: dose or concentration left out as unconfirmed
Description: as §1, §2

thermolysin = target: T1, thermolysin (Bacillus thermoproteolyticus, UniProt P00800); assay: Protease assay with azocasein: thermolysin; type: biochemical; settings: 10 mM
T1 construct: purchased Sigma-Aldrich P1512
Description: (§3) Protease Assays with azocasein: Protease inhibition assays against the proteases papain, ficin, trypsin, pepsin and thermolysin were performed according to the protocol of Garcia-Carreño (loc. cit.) in a reaction buffer containing 25 mM TRIS-HCl, 0.15 M NaCl, pH 7.2 (or pH 3.5 for aspartic protease). The total assay volume was 47 μL buffer with 2 μL of the protease as well as 1 μL of suitable inhibitor or corresponding inhibitor solvent (100% MeoH or water). Final concentration of proteases was as follows: 2 mg/mL for papain (Sigma-Aldrich, P4762), 600 μg/mL for ficin (Sigma-Aldrich, F6008), 80 μg/mL for trypsin (Thermo Fisher, 23266), 60 mg/mL for pepsin (Sigma-Aldrich P6887)) and 2 μg/mL for thermolysin (Sigma-Aldrich, P1512).
(§4) Inhibitors were dissolved in 100% MeOH or water and added to the assay (1 μL); final concentration: 2% MeOH. Samples of control inhibitors were prepared as follows: (1) serine protease (trypsin): PMFS (2 mM) and soybean trypsin inhibitor (240 μM) (Sigma-Aldrich, T1021), (2) cysteine proteases (papain and ficin): iodacetamide (2 mM), (3) […] (pepsin): pepstatin A (1 μg/mL) (Sigma-Aldrich, P4265), (4) metalloprotease (thermolysin): EDTA (10 mM). […] Negative controls were performed with protease alone (without inhibitor) and MeOH at a final concentration of 2% (reference for activity of 100%). Extract absorbance controls were performed using inhibitor (1 μL in MeOH) without protease. Blanks were performed using 49 μL buffer and 1 μL MeOH.
(§5) Samples were incubated with buffer and suitable inhibitor (or without for negative controls) for 1 h at r.t. and the reaction was started afterward by adding 50 μl of […] substrate and incubated for 1 h at 37° C. After stopping the reaction with trichloracetic acid (TCA), the separation of the precipitate was accomplished by centrifugation at 6500 g for 5 min. The hydrolyzed substrate supernatant was incubated in an equal volume of 0.5 N NaOH for 5 min and the absorbance was measured at 440 nm. OD values of the protease control without inhibitor were used as reference for a 100% activity.
(§6) The log IC50 values were determined using the standard curves analyzing tool with four parameter logistic equation of SigmaPlot12 with technical triplicates. Propagation of error was calculated using the standard error and log IC50 values where the equation of error propagation is defined as Δy=0.43Δx/x.

pepsin = target: T2, pepsin (Sus scrofa, UniProt P00791); assay: Protease assay with azocasein: pepsin; type: biochemical; settings: 1 μg/mL
T2 construct: purchased Sigma-Aldrich P6887
Description: as §3, §4, §5, §6

Chain of hCatL (P07711 114-333): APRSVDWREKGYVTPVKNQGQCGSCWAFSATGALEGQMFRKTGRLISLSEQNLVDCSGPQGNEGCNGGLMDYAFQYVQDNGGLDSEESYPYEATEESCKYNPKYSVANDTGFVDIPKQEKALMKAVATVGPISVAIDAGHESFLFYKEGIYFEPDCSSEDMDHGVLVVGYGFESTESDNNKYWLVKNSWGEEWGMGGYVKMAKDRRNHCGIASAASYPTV
T1 sequence (P00800 233-548): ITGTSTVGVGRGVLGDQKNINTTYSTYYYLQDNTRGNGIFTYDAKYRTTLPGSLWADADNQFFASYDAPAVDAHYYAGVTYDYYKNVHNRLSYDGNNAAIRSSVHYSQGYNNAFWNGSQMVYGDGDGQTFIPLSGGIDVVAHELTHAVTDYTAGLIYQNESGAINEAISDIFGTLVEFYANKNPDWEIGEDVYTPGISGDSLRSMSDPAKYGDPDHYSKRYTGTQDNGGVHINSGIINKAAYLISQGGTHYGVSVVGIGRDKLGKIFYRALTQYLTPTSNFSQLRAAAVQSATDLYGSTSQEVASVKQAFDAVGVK
T2 sequence (P00791 60-385): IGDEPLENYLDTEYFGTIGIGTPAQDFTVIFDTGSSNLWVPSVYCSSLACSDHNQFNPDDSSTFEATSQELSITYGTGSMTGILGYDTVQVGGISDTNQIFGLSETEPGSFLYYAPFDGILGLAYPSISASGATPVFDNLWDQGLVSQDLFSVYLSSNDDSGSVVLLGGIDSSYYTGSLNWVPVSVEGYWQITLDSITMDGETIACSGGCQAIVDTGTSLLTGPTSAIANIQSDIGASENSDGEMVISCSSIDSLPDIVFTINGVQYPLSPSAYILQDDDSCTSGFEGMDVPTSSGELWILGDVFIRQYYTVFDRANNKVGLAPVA

Compound: CC(=O)N[C@@H](Cc1ccc(O)cc1)C(=O)N[C@H](/C=C/C(=O)O)CCCNC(=N)N [drawing 58]
- Area rel. [%] (GSH assay, NC) (Glutathione (GSH) assay): 108.9%
- Area rel. [%] (GSH assay) (Glutathione (GSH) assay; pH 7.4, time 90 min): 112.8%

Compound: CCCCCCCC(=O)N[C@@H](Cc1ccc(O)cc1)C(=O)N[C@@H](CCCNC(=N)N)CCC(=O)O [drawing 65]
- Area rel. [%] (liver microsomes, NC) [1]: 99.5%

Compound: CCCCC/C=C/C(=O)N[C@@H](Cc1ccc(O)cc1)C(=O)N[C@H](/C=C/C(=O)O)CCCNC(=N)N [drawing 51]
- Area rel. [%] (GSH assay, NC) (Glutathione (GSH) assay): 91.9%
- Area rel. [%] (GSH assay) (Glutathione (GSH) assay; pH 7.4, time 30 min): 93.3%
- Area rel. [%] (GSH assay) (Glutathione (GSH) assay; pH 7.4, time 90 min): 94.2%

Compound: CCCCC/C=C/C(=O)N[C@H](Cc1ccc(O)cc1)C(=O)N[C@H](/C=C/C(=O)O)CCCNC(=N)N [drawing 63]
- Area rel. [%] (liver microsomes, NC) [1]: 105.8%

Compound: O=C(O)Cc1ccccc1Nc1c(Cl)cccc1Cl [Diclo, Diclofenac, reference compound]
- Area rel. [%] (liver microsomes, PC) ([1]; time 10 min): 49.0%
- Area rel. [%] (liver microsomes, PC) ([1]; time 35 min): 3.8%

Compound: CCCCC/C=C/C(=O)N[C@@H](Cc1ccc(O)cc1)C(=O)N[C@@H](/C=C/C(=O)O)CCCCN [drawing 52]
- Area rel. [%] (GSH assay, NC) (Glutathione (GSH) assay): 103.9%
- Area rel. [%] (GSH assay) (Glutathione (GSH) assay; pH 7.4, time 30 min): 104.3%
- Area rel. [%] (GSH assay) (Glutathione (GSH) assay; pH 7.4, time 90 min): 98.0%

Compound: CCCCC/C=C/C(=O)N[C@@H](Cc1ccc(O)cc1)C(=O)N[C@@H](/C=C/C(=O)O)CCCCN [drawing 60]
- Area rel. [%] (liver microsomes, NC) [1]: 95.7%

Compound: CCCCC/C=C/C(=O)N[C@@H](Cc1ccc(O)cc1)C(=O)N[C@H](/C=C/C(=O)O)CCCNC(=N)N [drawing 59]
- Area rel. [%] (liver microsomes, NC) [1]: 92.3%

Compound: CCCCC/C=C/C(=O)N[C@@H](Cc1ccccc1)C(=O)N[C@H](/C=C/C(=O)O)CCCNC(=N)N [drawing 53]
- Area rel. [%] (GSH assay, NC) (Glutathione (GSH) assay): 101.8%
- Area rel. [%] (GSH assay) (Glutathione (GSH) assay; pH 7.4, time 30 min): 102.7%
- Area rel. [%] (GSH assay) (Glutathione (GSH) assay; pH 7.4, time 90 min): 106.2%

Compound: CCCCC/C=C/C(=O)N[C@@H](Cc1ccc(O)cc1)C(=O)N[C@@H](/C=C/C(=O)O)CCCCN [drawing 46]
- inhibition (hCatL): 96%
- inhibition (Cathepsin B): 73%

Compound: CCCCC/C=C/C(=O)N[C@@H](Cc1ccccc1)C(=O)N[C@H](/C=C/C(=O)O)CCCNC(=N)N [drawing 61]
- Area rel. [%] (liver microsomes, NC) [1]: 89.2%

Compound: O=C(O)CN(CCN(CC(=O)O)CC(=O)O)CC(=O)O [EDTA, reference compound]
- inhibited enzyme activity (thermolysin), control inhibitor (thermolysin): > 95%

Compound: CCCCCCCC(=O)N[C@@H](Cc1ccc(O)cc1)C(=O)N[C@H](/C=C/C(=O)O)CCCNC(=N)N [drawing 50]
- inhibition (hCatL): 80%
- inhibition (Cathepsin B): 30%

Compound: CC(C)CC(=O)N[C@H](C(=O)N[C@H](C(=O)N[C@@H](CC(C)C)[C@@H](O)CC(=O)N[C@@H](C)C(=O)N[C@@H](CC(C)C)[C@@H](O)CC(=O)O)C(C)C)C(C)C [pepstatin A, reference compound] (Isovaleryl-VV[Sta]A[Sta]-OH)
- inhibited enzyme activity (pepsin), control inhibitor (pepsin): > 95%

Compound: CCCCC/C=C/C(=O)N[C@@H](Cc1ccc(O)cc1)C(=O)N[C@@H](/C=C/C(=O)O)CCCNC(=N)N [drawing 48]
- inhibition (hCatL): 20%
- inhibition (Cathepsin B): 15%

Compound: CCCCC/C=C/C(=O)N[C@@H](Cc1ccc(O)cc1)C(=O)N[C@@H](/C=C/C(=O)O)CCCNC(=N)N [drawing 62]
- Area rel. [%] (liver microsomes, NC) [1]: 102.8%

Compound: CCCCCCCC(=O)N[C@@H](Cc1ccc(O)cc1)C(=O)N[C@H](/C=C/C(=O)O)CCCNC(=N)N [drawing 64]
- Area rel. [%] (liver microsomes, NC) [1]: 104.3%

Compound: CC(=O)N[C@@H](Cc1ccc(O)cc1)C(=O)N[C@H](/C=C/C(=O)O)CCCNC(=N)N [drawing 66]
- Area rel. [%] (liver microsomes, NC) [1]: 111.9%

Compound: CCCCC/C=C/C(=O)N[C@@H](Cc1ccccc1)C(=O)N[C@H](/C=C/C(=O)O)CCCNC(=N)N [drawing 47]
- inhibition (hCatL): 90%
- inhibition (Cathepsin B): 41%

Compound: CCCCC/C=C/C(=O)N[C@@H](Cc1ccc(O)cc1)C(=O)N[C@H](/C=C/C(=O)O)CCCNC(=N)N [drawing 45]
- inhibition (hCatL): 95%
- inhibition (Cathepsin B): 50%

Compound: CCCCC/C=C/C(=O)N[C@H](Cc1ccc(O)cc1)C(=O)N[C@H](/C=C/C(=O)O)CCCNC(=N)N [drawing 55]
- Area rel. [%] (GSH assay, NC) (Glutathione (GSH) assay): 91.9%
- Area rel. [%] (GSH assay) (Glutathione (GSH) assay; pH 7.4, time 90 min): 98.6%
